Test results: patent publication US20240246946A1, “MODULATORS OF TREX1” (Constellation Pharmaceuticals, Inc., priority 2021, published 2024)

What was measured:
[1] = target: T1, human TREX2 (residues M44-A279) (Homo sapiens, UniProt Q9BQ50); assay: hTREX2 Biochemical Assay (fluorescence, dsDNA substrate degradation); details: biochemical selectivity for hTREX1 vs hTREX2
T1 construct: human TREX2 (residues M44-A279, expressed in E. coli); made in house; host or cells: E. coli
T1 sequence (Q9BQ50 44-279 isoform Q9BQ50-1): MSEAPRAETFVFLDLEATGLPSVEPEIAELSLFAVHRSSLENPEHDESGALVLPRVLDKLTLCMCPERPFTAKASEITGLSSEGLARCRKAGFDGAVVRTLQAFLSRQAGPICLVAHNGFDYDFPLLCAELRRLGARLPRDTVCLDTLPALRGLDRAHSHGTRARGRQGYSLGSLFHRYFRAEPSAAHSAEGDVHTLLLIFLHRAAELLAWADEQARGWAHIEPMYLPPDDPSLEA
Procedure: Degradation of the dsDNA liberates free fluorophore to produce a fluorescent signal. Specifically, 7.5 μL of N-terminally His-Tev tagged human TREX2 (residues M44-A279, expressed in E. coli and purified in house) in reaction buffer (50 mM Tris, 150 mM NaCl, 2 mM DTT, 0.1 mg/mL BSA, 0.01% (w/v) Tween-20, 5 mM MgCl2, pH 7.4) was added to a 384-well Black ProxiPlate Plus (PerkinElmer) which already contained compound (150 nL) at varying concentrations as a 10 point dose-response in DMSO. The plate was incubated at 25° C. for 4 hours. Reactions were initiated by adding 7.5 μL of dsDNA substrate (Strand A: 5′ TEX615/GCT AGG CAG 3′; Strand B: 5′ CTG CCT AGC/IAbRQSp (IDT)) in reaction buffer. Final concentrations were 50 pM TREX2, 60 nM dsDNA substrate in reaction buffer with 1.0% DMSO (v/v). After 18 hours at 25° C., reactions were quenched by the addition of 2 μL of 500 mM EDTA. Final concentrations in the quenched reaction mixture were 44 pM TREX2, 53 nM DNA and 59 mM EDTA in a volume of 17 μL. After a 5-minute incubation at room temperature, plates were read in an EnVision plate reader (PerkinElmer) measuring fluorescence at 615 nm following excitation w/570 nm light.

full length human TREX1 = target: T2, full length human TREX1 (Homo sapiens, UniProt Q9NSU2); assay: hTREX1 Biochemical Assay (fluorescence, dsDNA substrate degradation); details: biochemical, read-out: hTREX1 IC50
T2 construct: N-terminally His-Tev tagged full length human TREX1; made in house; host or cells: E. coli
T2 sequence (Q9NSU2 1-314): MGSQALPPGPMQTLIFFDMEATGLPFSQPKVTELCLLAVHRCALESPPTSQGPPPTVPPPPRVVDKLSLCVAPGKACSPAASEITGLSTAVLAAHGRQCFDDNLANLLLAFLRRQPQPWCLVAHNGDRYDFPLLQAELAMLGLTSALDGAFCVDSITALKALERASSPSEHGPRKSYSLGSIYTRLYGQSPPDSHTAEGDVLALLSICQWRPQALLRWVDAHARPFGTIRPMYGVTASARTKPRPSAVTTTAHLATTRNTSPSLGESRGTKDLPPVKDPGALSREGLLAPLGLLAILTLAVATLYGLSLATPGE
In short: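 Cleavage of 60 nM TEX615/quencher-labelled dsDNA in pH 7.4 Tris buffer with 5 mM MgCl2, 1.0% DMSO, run 18 hours at 25° C, EDTA-quenched; fluorescence read-out.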

full length mouse TREX1 = target: T3, full length mouse TREX1 (Mus musculus, UniProt Q91XB0); assay: mTREX1 Biochemical Assay (fluorescence, dsDNA substrate degradation); details: biochemical, read-out: mTREX1 IC50
T3 construct: N-terminally His-Tev tagged full length mouse TREX1; made in house; host or cells: E. coli
T3 sequence (Q91XB0 1-314): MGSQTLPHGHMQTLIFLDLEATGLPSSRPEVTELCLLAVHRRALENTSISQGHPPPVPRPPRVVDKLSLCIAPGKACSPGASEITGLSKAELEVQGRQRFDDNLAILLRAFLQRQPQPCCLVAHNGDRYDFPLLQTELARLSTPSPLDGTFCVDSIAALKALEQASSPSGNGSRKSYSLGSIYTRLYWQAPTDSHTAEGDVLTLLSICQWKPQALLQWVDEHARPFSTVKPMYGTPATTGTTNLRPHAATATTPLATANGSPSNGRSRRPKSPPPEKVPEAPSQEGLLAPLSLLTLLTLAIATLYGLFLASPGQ
In short: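 Reaction run 18 h at 25° C. with 60 nM TEX615/quencher-labelled dsDNA and 6 pM mouse TREX1 in Tris buffer (pH 7.4, 5 mM MgCl2, 1.0% DMSO), enzyme having sat 4 h with compound across 10 concentrations. EDTA quench; substrate degradation measured as fluorescence increase.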

## Cc1nn(C)c(C)c1C(c1cc(F)ccc1Cl)C(C)c1nc(C(=O)Nc2cnoc2)c(O)c(=O)n1C (single isomer, unassigned) [Example 154 D1E2]
[1]
  hTREX1 vs hTREX2 selectivity: A (A = <25 fold selective for hTREX1)
Full length human TREX1
  IC50: > 10 nM
Full length mouse TREX1
  IC50: > 10 nM

## Cc1ncc(C(c2ccccc2Cl)C(C)c2nc(C(=O)Nc3cnoc3)c(O)c(=O)n2C)cn1 (single isomer, unassigned) [Example 44 D1E1]
[1]
  hTREX1 vs hTREX2 selectivity: A (A = <25 fold selective for hTREX1)
Full length human TREX1
  IC50: > 10 nM
Full length mouse TREX1
  IC50: > 10 nM

## Cc1nn(C)c(C)c1C(c1cc(F)ccc1C#N)C(C)c1nc(C(=O)Nc2cnoc2)c(O)c(=O)n1C (single isomer, unassigned) [Example 109 D1E2]
[1]
  hTREX1 vs hTREX2 selectivity: A (A = <25 fold selective for hTREX1)
Full length human TREX1
  IC50: > 10 nM
Full length mouse TREX1
  IC50: > 10 nM

## CC(c1nc(C(=O)Nc2cnoc2)c(O)c(=O)n1C)C(c1cnn(CC(C)(C)O)c1)c1ccccc1Cl (single isomer, unassigned) [Example 86 D2E2]
[1]
  hTREX1 vs hTREX2 selectivity: A (A = <25 fold selective for hTREX1)
Full length human TREX1
  IC50: > 10 nM
Full length mouse TREX1
  IC50: > 10 nM

## CC(c1nc(C(=O)Nc2cnoc2)c(O)c(=O)n1C)C(c1nnn(C)n1)c1ccccc1C#N (single isomer, unassigned) [Example 79 D2E2]
[1]
  hTREX1 vs hTREX2 selectivity: A (A = <25 fold selective for hTREX1)
Full length human TREX1
  IC50: > 10 nM
Full length mouse TREX1
  IC50: > 10 nM

## CC(c1nc(C(=O)Nc2cnoc2)c(O)c(=O)n1C)C(c1cn[nH]c1)c1ccccc1C#N (single isomer, unassigned) [Example 12 D1E2]
[1]
  hTREX1 vs hTREX2 selectivity: B (B = 25 to 50-fold selective for hTREX1)
Full length human TREX1
  IC50: > 10 nM
Full length mouse TREX1
  IC50: > 10 nM

## CCn1cc(C(c2cc(F)ccc2Cl)C(C)c2nc(C(=O)Nc3cnoc3)c(O)c(=O)n2C)cn1 (single isomer, unassigned) [Example 60 D2E1]
[1]
  hTREX1 vs hTREX2 selectivity: A (A = <25 fold selective for hTREX1)
Full length human TREX1
  IC50: > 10 nM
Full length mouse TREX1
  IC50: > 10 nM

## CCn1c(C(C)C(c2cnn(C)c2)c2ccccc2C#N)nc(C(=O)Nc2cnoc2)c(O)c1=O (single isomer, unassigned) [Example 149 D2E1]
[1]
  hTREX1 vs hTREX2 selectivity: A (A = <25 fold selective for hTREX1)
Full length human TREX1
  IC50: > 10 nM
Full length mouse TREX1
  IC50: > 10 nM

## COCCn1ncc(C(c2cc(F)ccc2C#N)C(C)c2nc(C(=O)Nc3cnoc3)c(O)c(=O)n2C)c1C (single isomer, unassigned) [Example 104 D2E1]
[1]
  hTREX1 vs hTREX2 selectivity: A (A = <25 fold selective for hTREX1)
Full length human TREX1
  IC50: > 10 nM
Full length mouse TREX1
  IC50: > 10 nM

## Cc1cnc(C(c2ccccc2C#N)C(C)c2nc(C(=O)Nc3cnoc3)c(O)c(=O)n2C)c(C)n1 (single isomer, unassigned) [Example 123 D1E2]
[1]
  hTREX1 vs hTREX2 selectivity: A (A = <25 fold selective for hTREX1)
Full length human TREX1
  IC50: > 10 nM
Full length mouse TREX1
  IC50: > 10 nM

## CC(c1nc(C(=O)Nc2cnoc2)c(O)c(=O)n1C)C(c1ccccc1Cl)c1cnn(C)c1C#N (single isomer, unassigned) [Example 96 D2E1]
[1]
  hTREX1 vs hTREX2 selectivity: A (A = <25 fold selective for hTREX1)
Full length human TREX1
  IC50: > 10 nM
Full length mouse TREX1
  IC50: > 10 nM

## CC(=O)N(C)c1nn(C)cc1C(c1ccccc1C#N)C(C)c1nc(C(=O)Nc2cnoc2)c(O)c(=O)n1C (single isomer, unassigned) [Example 153 D1E2]
[1]
  hTREX1 vs hTREX2 selectivity: A (A = <25 fold selective for hTREX1)
Full length human TREX1
  IC50: > 10 nM
Full length mouse TREX1
  IC50: > 10 nM

## CC(c1nc(C(=O)Nc2cnoc2)c(O)c(=O)n1C)C(c1cnn(C(C)(C)CC#N)c1)c1cc(F)ccc1Cl (single isomer, unassigned) [Example 100 D1E2]
[1]
  hTREX1 vs hTREX2 selectivity: A (A = <25 fold selective for hTREX1)
Full length human TREX1
  IC50: 1 to 10 nM
Full length mouse TREX1
  IC50: > 10 nM

## Cc1cnn(C(c2ccccc2Cl)C(C)c2nc(C(=O)Nc3cnoc3)c(O)c(=O)n2C)c1 (single isomer, unassigned) [Example 133 D1E1]
[1]
  hTREX1 vs hTREX2 selectivity: A (A = <25 fold selective for hTREX1)
Full length human TREX1
  IC50: > 10 nM
Full length mouse TREX1
  IC50: > 10 nM
